Structures can show the parent of a compound that is named as a salt.
Tests used:
[1] = target: T1, HCV genotype 1b (BK) NS3 modified enzyme with a R155K mutation (Hepatitis C virus genotype 1b, UniProt P26663, R1181K); experiment: HCV NS3 protease time-resolved fluorescence (TRF) assay, genotype 1b R155K; format: biochemical; settings: Ki 1b R155K
T1 construct: HCV genotype 1b (BK) NS3 modified enzyme
Method in brief: (§1)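 Time-resolved fluorescence, ex 340/em 615 nm, 400 μs delay; IC50 by four-parameter fit. Enzyme preincubated with compound 10 min, then TRF substrate 25 nM final added and reaction run 6 h at RT. Buffer HEPES pH 7.5 with NaCl, glycerol, Triton X-100, DTT, PEG 8000.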

[2] = target: HCV NS3 protease genotype 3a (3A-1) (Hepatitis C virus genotype 3a, UniProt Q81258); experiment: HCV NS3 protease time-resolved fluorescence (TRF) assay, genotype 3a; format: biochemical; settings: Ki 3a
Method in brief: as §1

[3] = genotype 1b (BK) NS3 R155K, single value
[4] = first of two values printed in the cell (not explained)
[5] = second of two values printed in the cell (not explained)

Compound	Ki [1, 3] [nM]	Ki [2] [nM]	Ki [1, 4] [nM]	Ki [1, 5] [nM]
C=C[C@@H]1C[C@]1(NC(=O)[C@@H]1C[C@@H]2CN1C(=O)[C@H](C(C)(C)C)NC(=O)O[C@@H]1C[C@H]1CCCCCc1c(nc3ccccc3c1OCCCN1CCC1)O2)C(=O)NS(=O)(=O)C1(C)CC1 [Example 133, (1aR,5S,8S,10R,22aR)-17-[3-(azetidin-1-yl)propoxy]-5-tert-butyl-N-[(1R,2S)-2-ethenyl-1-{[(1-methylcyclopropyl)sulfonyl]carbamoyl}cyclopropyl]-3,6-dioxo-1,1a,3,4,5,6,9,10,18,19,20,21,22,22a-tetradecahydro-8H-7,10-methanocyclopropa[18,19][1,10,3,6]dioxadiazacyclononadecino[11,12-b]quinoline-8-carboxamide]	0.11	1	–	–
C=C[C@@H]1C[C@]1(NC(=O)[C@@H]1C[C@@H]2CN1C(=O)[C@H](C1CCCC1)NC(=O)O[C@@H]1CCC[C@H]1CC/C=C/Cc1c(nc3ccccc3c1OCCCNC(=O)OC(C)(C)C)O2)C(=O)NS(=O)(=O)C1CC1 [Example 84, tert-butyl (3-{[(3aR,7S,10S,12R,21E,24aS)-7-cyclopentyl-10-({(1R,2S)-1-[(cyclopropylsulfonyl)carbamoyl]-2-ethenylcyclopropyl}carbamoyl)-5,8-dioxo-1,2,3,3a,5,6,7,8,11,12, 20,23,24,24a-tetradecahydro-10H-9,12-methanocyclopenta[18,19][1,10,3,6]dioxadiazacyclononadecino [11,12-b]quinolin-19-yl]oxy}propyl)carbamate]	0.24	7.2	–	–
CC1(S(=O)(=O)NC(=O)[C@@]23C[C@H]2/C=C\CCCCC[C@@H]2NC(=O)O[C@@H]4C[C@H]4CCCCCc4c(nc5ccccc5c4OCCN4CCOCC4)O[C@@H]4C[C@@H](C(=O)N3)N(C4)C2=O)CC1 [Example 301, (1aR,5S,11Z,12aS,13aR,16S,19R,31aR)—N-[(1-methylcyclopropyl)sulfonyl]-26-[2-(morpholin-4-yl)ethoxy]-3,15,33-trioxo-1,1a,3,4,5,6,7,8,9,10,12a,13,15,16,18,19,27,28,29,30,31,31a-docosahydro-5,17:16,19-dimethanodicyclopropa[12,13:28,29][1,20,3,14,17]dioxatriazacyclononacosino[21,22-b]quinoline-13a(14H)-carboxamide]	0.35	5.9	–	–
C=C[C@@H]1C[C@]1(NC(=O)[C@@H]1C[C@@H]2CN1C(=O)[C@H](C1CCCCC1)NC(=O)O[C@@H]1C[C@H]1CCCCCc1c(nc3ccccc3c1OCCCN1CCCOCC1)O2)C(=O)NS(=O)(=O)C1(C)CC1 [Example 168, (1aR,5S,8S,10R,22aR)-5-cyclohexyl-N-[(1R,2S)-2-ethenyl-1-{[(1-methylcyclopropyl)sulfonyl]carbamoyl}cyclopropyl]-17-[3-(1,4-oxazepan-4-yl)propoxy]-3,6-dioxo-1,1a,3,4,5,6,9,10,18,19,20,21, 22,22a-tetradeca hydro-8H-7,10-methanocyclopropa[18,19][1,10,3,6] dioxadiazacyclononadecino[11,12-b] quinoline-8-carboxamide]	0.078	1.3	–	–
C=C[C@@H]1C[C@]1(NC(=O)[C@@H]1C[C@@H]2CN1C(=O)[C@H](C(C)(C)C)NC(=O)O[C@@H]1C[C@H]1CCCCCc1c(nc3ccccc3c1OCC1CN(C(=O)OC(C)(C)C)C1)O2)C(=O)NS(=O)(=O)C1(C)CC1 [Example 142, tert-butyl 3-({[(1aR,5S,8S,10R, 22aR)-5-tert-butyl-8-{[(1R,2S)-2-ethenyl-1-{[(1-methylcyclopropyl)sulfonyl]carbamoyl}cyclopropyl]carbamoyl}-3,6-dioxo-1,1a,3,4,5,6,9,10,18,19,20,21,22,22a-tetradeca hydro-8H-7,10-methanocyclopropa[18,19][1,10,3,6]dioxadiazacyclononadecino [11,12-b]quinolin-17-yl]oxy}methyl) azetidine-1-carboxylate]	0.7	15	–	–
C=C[C@@H]1C[C@]1(NC(=O)[C@@H]1C[C@@H]2CN1C(=O)[C@H](C(C)(C)C)NC(=O)O[C@@H]1CCC[C@H]1CC/C=C/Cc1c(nc3ccccc3c1OCCCN1CCCCC1)O2)C(=O)NS(=O)(=O)C1CC1 [Example 45, (3aR,7S,10S,12R,21E,24aS)-7-tert-butyl-N-{(1R,2S)-1-[(cyclopropylsulfonyl)carbamoyl]-2-ethenylcyclopropyl}-5,8-dioxo-19-[3-(piperidin-1-yl)propoxy]-1,2,3,3a,5,6,7,8,11, 12,20,23,24,24a-tetradecahydro-10H-9,12-methanocyclopenta[18,19][1,10,3,6]dioxa diazacyclononadecino[11,12-b]quinoline-10-carboxamide]	0.1	0.5	–	–
C=C[C@@H]1C[C@]1(NC(=O)[C@@H]1C[C@@H]2CN1C(=O)[C@H](C1CCCC1)NC(=O)O[C@@H]1CCC[C@H]1CCCCCc1c(nc3ccccc3c1OCCN1CC3CCC1C3)O2)C(=O)NS(=O)(=O)C1CC1 [Example 60, (3aR,7S,10S,12R,24aR)-19-[2-(2-azabicycle [2.2.1]hept-2-yl)ethoxy]-7-cyclo pentyl-N-{(1R,2S)-1-[(cyclopropylsulfonyl)carbamoyl]-2-ethenylcyclopropyl}-5,8-dioxo-1,2,3,3a,5,6,7,8,11,12,20,21,22,23,24,24a-hexadecahydro-10H-9,12-methanocyclopenta [18,19][1,10,3,6]dioxadiazacyclononadecino [11,12-b]quinoline-10-carboxamide]	0.61	12	–	–
C=C[C@@H]1C[C@]1(NC(=O)[C@@H]1C[C@@H]2CN1C(=O)[C@H](C(C)(C)C)NC(=O)O[C@@H]1C[C@H]1CCCCCc1c(nc3ccccc3c1OC1CC3CCC(C1)N3)O2)C(=O)NS(=O)(=O)C1(C)CC1 (single isomer, unassigned) [Example 274]	–	0.094	0.015	0.015
C=C[C@@H]1C[C@]1(NC(=O)[C@@H]1C[C@@H]2CN1C(=O)[C@H](C1CCCCC1)NC(=O)O[C@@H]1C[C@H]1CCCCCc1c(nc3ccccc3c1OC1CC3CCC(C1)N3C(=O)OC(C)(C)C)O2)C(=O)NS(=O)(=O)C1(C)CC1 (stereo partly drawn) [Example 282, tert-butyl 3-{[(1aR,5S,8S,10R,22aR)-5-cyclohexyl-8-{[(1R,2S)-2-ethenyl-1-{[(1-methylcyclopropyl)sulfonyl]carbamoyl}cyclopropyl]carbamoyl}-3,6-dioxo-1,1a,3,4,5,6,9,10,18,19,20,21,22,22a-tetradecahydro-8H-7,10-methanocyclopropa[18,19][1,10,3,6]dioxadiazacyclononadecino[11,12-b]quinolin-17-yl]oxy}-8-azabicyclo[3.2.1]octane-8-carboxylate]	–	140	0.14	5.3
CC1(S(=O)(=O)NC(=O)[C@@]23C[C@H]2/C=C\CCCCC[C@@H]2NC(=O)O[C@@H]4C[C@H]4CCCCCc4c(nc5ccccc5c4OCCN4CCCC4)O[C@@H]4C[C@@H](C(=O)N3)N(C4)C2=O)CC1 [Example 306, (1aR,5S,11Z,12aS,13aR,16S,19R,31aR)—N-[(1-methylcyclopropyl)sulfonyl]-3,15,33-trioxo-26-[2-(pyrrolidin-1-yl)ethoxy]-1,1a,3,4,5,6,7,8,9,10,12a,13,15,16,18,19,27,28,29,30,31,31a-docosahydro-5,17:16,19-dimethanodicyclopropa[12,13:28,29][1,20,3,14,17]dioxatriazacyclononacosino[21,22-b]quinoline-13a(14H)-carboxamide]	0.083	0.72	–	–
C=C[C@@H]1CC1(NC(=O)[C@@H]1C[C@@H]2CN1C(=O)[C@H](C(C)(C)C)NC(=O)O[C@@H]1C[C@H]1CCCCCc1c(nc3ccccc3c1OC1C3COCC1CN(CCOC)C3)O2)C(=O)NS(=O)(=O)C1(C)CC1 (stereo partly drawn) [Example 257, 9-{[(1aR,5S,8S,10R,22aR)-5-tert-butyl-8-{[(1R,2S)-2-ethenyl-1-{[1-methylcyclopropyl)sulfonyl]carbamoyl}cyclopropyl]carbamoyl}-3,6-dioxo-1,1a,3,4,5,6,9,10,18,19,20,21,22,22a-tetradecahydro-8H-7,10-methanocyclopropa[18,19][1,10,3,6]dioxadiazacyclononadecino[11,12-b]quinolin-17-yl]oxy}-7-(2-methoxyethyl)-3-oxa-7-azoniabicyclo[3.3.1]nonane formate]	–	3.9	0.032	0.23
C=C[C@@H]1C[C@]1(NC(=O)[C@@H]1C[C@@H]2CN1C(=O)[C@H](C(C)(C)C)NC(=O)O[C@@H]1C[C@H]1CCCCCc1c(nc3ccccc3c1OC1C3COCC1CN(CC1CC1)C3)O2)C(=O)NS(=O)(=O)C1(C)CC1 (stereo partly drawn) [Example 256, 9-{[(1aR,5S,8S,10R,22aR)-5-tert-butyl-8-{[(1R,2S)-2-ethenyl-1-{[(1-methylcyclopropyl)sulfonyl]carbamoyl}cyclopropyl]carbamoyl}-3,6-dioxo-1,1a,3,4,5,6,9,10,18,19,20,21,22,22a-tetradecahydro-8H-7,10-methanocyclopropa[18,19][1,10,3,6]dioxadiazacyclononadecino[11,12-b]quinolin-17-yl]oxy}-7-(cyclopropylmethyl)-3-oxa-7-azoniabicyclo[3.3.1]nonane formate]	–	5.45	0.021	0.122
C=C[C@@H]1C[C@]1(NC(=O)[C@@H]1C[C@@H]2CN1C(=O)[C@H](C(C)(C)C)NC(=O)O[C@H]1C[C@@H]1CCCCCc1c(nc3ccncc3c1OC1CCN(C)CC1)O2)C(=O)NS(=O)(=O)C1(C)CC1 [Example 295, (1aS,5S,8S,10R,22aS)-5-tert-butyl-N-{(1R,2S)-2-ethenyl-1-[(1-methylcyclopropanesulfonamido)carbonyl]cyclopropyl}-17-[(1-methylpiperidin-4-yl)oxy]-3,6-dioxo-1,1a,3,4,5,6,9,10,18,19,20,21,22,22a-tetradecahydro-8H-7,10-methanocyclopropa[18,19][1,10,3,6]dioxadiazacyclononadecino[11,12-b][1,6]naphthyridine-8-carboxamide]	0.082	1.07	–	–

Reference: patent US9328138B2 (priority 2011, dated 2016)
